The results in this text go back to patent publication US10730874B2 (Shire Human Genetic Therapies, Inc., priority 2018, dated 2020).

The target in this experiment is human activated kallikrein enzyme (plasma kallikrein) (Homo sapiens (Human), UniProt P03952). As to the kind of experiment: Inhibition of human activated plasma kallikrein, fluorogenic peptide substrate assay, 500 pM enzyme format. Type of experiment: biochemical. The settings on record: 500 pM activated kallikrein enzyme, 300 uM Pro-Phe-Arg-7-amido-4-methylcoumarin substrate, 30 min preincubation, 10 min at RT; read-out: Primary Dose Response Assay: Average EC50. A digest of the protocol: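 Buffer 20 mM Tris pH 7.5, EDTA, NaCl, PEG-400, Triton X-100; 300 uM Pro-Phe-Arg-AMC; enzyme–inhibitor preincubation 30 min RT. Format one: 500 pM kallikrein, 10 min RT reaction; format two: 5 pM kallikrein, 18 h RT reaction. Fluorescence read at 460 nm (380 nm excitation).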
Sequence of human activated kallikrein enzyme (plasma kallikrein) (P03952 391-638): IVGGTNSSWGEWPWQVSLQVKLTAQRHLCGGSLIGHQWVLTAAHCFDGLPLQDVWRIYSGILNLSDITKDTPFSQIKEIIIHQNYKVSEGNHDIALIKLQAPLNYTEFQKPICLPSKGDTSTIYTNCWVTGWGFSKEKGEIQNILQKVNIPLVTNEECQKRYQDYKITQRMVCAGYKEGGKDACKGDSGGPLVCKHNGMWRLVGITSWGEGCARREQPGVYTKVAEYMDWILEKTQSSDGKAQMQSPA
Sequence of human activated kallikrein enzyme (plasma kallikrein) (P03952 20-390 partner): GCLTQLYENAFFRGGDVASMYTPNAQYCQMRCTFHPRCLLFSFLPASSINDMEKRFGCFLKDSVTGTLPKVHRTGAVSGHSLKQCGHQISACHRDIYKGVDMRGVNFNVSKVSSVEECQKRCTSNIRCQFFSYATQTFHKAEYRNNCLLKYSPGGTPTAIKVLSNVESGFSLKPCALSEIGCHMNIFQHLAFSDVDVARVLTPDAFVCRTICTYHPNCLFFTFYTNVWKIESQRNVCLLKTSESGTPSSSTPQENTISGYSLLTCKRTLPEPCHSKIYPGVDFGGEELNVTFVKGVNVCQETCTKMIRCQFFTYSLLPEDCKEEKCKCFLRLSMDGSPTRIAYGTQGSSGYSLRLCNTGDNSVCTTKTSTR
Regarding `O=C(O)CCc1cc(C2CC2)cn2cc(Cn3cc(C(=O)NCc4ncn5ccc(Cl)cc45)cn3)nc12` [Example I-100c, 3-(2-((4-(((7-chloroimidazo[1,5-a]pyridin-1-yl)methyl)carbamoyl)-1H-pyrazol-1-yl)methyl)-6-cyclopropylimidazo[1,2-a]pyridin-8-yl)propanoic acid], the half-maximal effective concentration (EC50) (in general, the concentration giving half of the maximal effect) was less than 1 nM. The same measure for `O=C(NCc1ncn2ccc(Cl)cc12)c1cnn(Cc2cn3cc(C4CC4)cc(CN4CCOCC4)c3n2)c1` [Example I-101, N-((7-chloroimidazo[1,5-a]pyridin-1-yl)methyl)-1-((6-cyclopropyl-8-(morpholinomethyl)imidazo[1,2-a]pyridin-2-yl)methyl)-1H-pyrazole-4-carboxamide]: less than 1 nM; for `O=C(NCc1ncn2ccc(Cl)cc12)c1cn(Cc2cn3cc(C4CC4)ccc3n2)nc1C1COC1` [Example I-102, N-((7-chloroimidazo[1,5-a]pyridin-1-yl)methyl)-1-((6-cyclopropylimidazo[1,2-a]pyridin-2-yl)methyl)-3-(oxetan-3-yl)-1H-pyrazole-4-carboxamide]: less than 1 nM. Then `COCCOc1cc(C2CC2)cn2cc(Cn3cc(C(=O)NCc4ncn5ccc(Cl)cc45)cn3)nc12` [Example I-103, N-((7-chloroimidazo[1,5-a]pyridin-1-yl)methyl)-1-((6-cyclopropyl-8-(2-methoxyethoxy)imidazo[1,2-a]pyridin-2-yl)methyl)-1H-pyrazole-4-carboxamide], with less than 1 nM; and `CC(=O)c1cc(C2CC2)cn2cc(Cn3cc(C(=O)NCc4ncn5ccc(Cl)cc45)cn3)nc12` [Example I-104a, 1-((8-acetyl-6-cyclopropylimidazo[1,2-a]pyridin-2-yl)methyl)-N-((7-chloroimidazo[1,5-a]pyridin-1-yl)methyl)-1H-pyrazole-4-carboxamide], with less than 1 nM. As to `CC(C)(O)c1cc(C2CC2)cn2cc(Cn3cc(C(=O)NCc4ncn5ccc(Cl)cc45)cn3)nc12` [Example I-104b, N-((7-chloroimidazo[1,5-a]pyridin-1-yl)methyl)-1-((6-cyclopropyl-8-(2-hydroxypropan-2-yl)imidazo[1,2-a]pyridin-2-yl)methyl)-1H-pyrazole-4-carboxamide], the EC50 was less than 1 nM. With `CCOC(=O)Cc1cc(C2CC2)cn2cc(Cn3cc(C(=O)NCc4ncn5ccc(Br)c(F)c45)cn3)nc12` [Example I-105, ethyl 2-(2-((4-(((7-bromo-8-fluoroimidazo[1,5-a]pyridin-1-yl)methyl)carbamoyl)-1H-pyrazol-1-yl)methyl)-6-cyclopropylimidazo[1,2-a]pyridin-8-yl)acetate], the EC50 is less than 1 nM. Then `O=C(O)Cc1cc(C2CC2)cn2cc(Cn3cc(C(=O)NCc4ncn5ccc(Br)c(F)c45)cn3)nc12` [Example I-106, 2-(2-((4-(((7-bromo-8-fluoroimidazo[1,5-a]pyridin-1-yl)methyl)carbamoyl)-1H-pyrazol-1-yl)methyl)-6-cyclopropylimidazo[1,2-a]pyridin-8-yl)acetic acid], with less than 1 nM; and `O=C(NCc1ncn2ccc(Cl)cc12)c1cnn(Cc2cn3cc(C4CC4)cc(CCCO)c3n2)c1` [Example I-107, N-((7-chloroimidazo[1,5-a]pyridin-1-yl)methyl)-1-((6-cyclopropyl-8-(3-hydroxypropyl)imidazo[1,2-a]pyridin-2-yl)methyl)-1H-pyrazole-4-carboxamide], with less than 1 nM; and `CC(C)(O)Cc1cc(C2CC2)cn2cc(Cn3cc(C(=O)NCc4ncn5ccc(Cl)cc45)cn3)nc12` [Example I-109, N-((7-chloroimidazo[1,5-a]pyridin-1-yl)methyl)-1-((6-cyclopropyl-8-(2-hydroxy-2-methylpropyl)imidazo[1,2-a]pyridin-2-yl)methyl)-1H-pyrazole-4-carboxamide], with less than 1 nM. The same measure for `O=C(NCc1ncn2ccc(Cl)cc12)c1nnn(Cc2cn3cc(C4CC4)ccc3n2)n1` [Example I-110, N-((7-chloroimidazo[1,5-a]pyridin-1-yl)methyl)-2-((6-cyclopropylimidazo[1,2-a]pyridin-2-yl)methyl)-2H-tetrazole-5-carboxamide]: less than 1 nM; for `O=C(NCc1ncn2ccc(Cl)cc12)c1cn(Cc2cn3nc(C4CC4)ccc3n2)nn1` [Example I-111, N-((7-chloroimidazo[1,5-a]pyridin-1-yl)methyl)-1-((6-cyclopropylimidazo[1,2-b]pyridazin-2-yl)methyl)-1H-1,2,3-triazole-4-carboxamide]: less than 1 nM; for `N#Cc1cc(C2CC2)cn2cc(Cn3cc(C(=O)NCc4ncn5ccc(Cl)cc45)nn3)nc12` [Example I-112, N-((7-chloroimidazo[1,5-a]pyridin-1-yl)methyl)-1-((8-cyano-6-cyclopropylimidazo[1,2-a]pyridin-2-yl)methyl)-1H-1,2,3-triazole-4-carboxamide]: less than 1 nM. The same measure for `CCOC(=O)C1CC1c1nn(Cc2cn3cc(C4CC4)ccc3n2)cc1C(=O)NCc1ncn2ccc(Cl)cc12` (centres unmarked) [Example I-113, ethyl 2-(4-(((7-chloroimidazo[1,5-a]pyridin-1-yl)methyl)carbamoyl)-1-((6-cyclopropylimidazo[1,2-a]pyridin-2-yl)methyl)-1H-pyrazol-3-yl)cyclopropane-1-carboxylate]: 1 to 10 nM; for `O=C(NCc1ncn2ccc(Cl)cc12)c1cnn(Cc2cn3cc(C4CC4)cc(N4CCCC4=O)c3n2)c1` [Example I-114, N-((7-chloroimidazo[1,5-a]pyridin-1-yl)methyl)-1-((6-cyclopropyl-8-(2-oxopyrrolidin-1-yl)imidazo[1,2-a]pyridin-2-yl)methyl)-1H-pyrazole-4-carboxamide]: less than 1 nM; for `CCOC(=O)C1(c2cccn3cc(Cn4cc(C(=O)NCc5ncn6ccc(Cl)cc56)cn4)nc23)CC1` [Example I-115, ethyl 1-(2-((4-(((7-chloroimidazo[1,5-a]pyridin-1-yl)methyl)carbamoyl)-1H-pyrazol-1-yl)methyl)imidazo[1,2-a]pyridin-8-yl)cyclopropane-1-carboxylate]: less than 1 nM. Regarding `O=C(NCc1ncn2ccc(Cl)cc12)c1cnn(Cc2cn3cccc(C4(C(=O)O)CC4)c3n2)c1` [Example I-116, 1-(2-((4-(((7-chloroimidazo[1,5-a]pyridin-1-yl)methyl)carbamoyl)-1H-pyrazol-1-yl)methyl)imidazo[1,2-a]pyridin-8-yl)cyclopropane-1-carboxylic acid], the EC50 was in the range of 1 to 10 nM. Then `O=C(NCc1ncn2ccc(Cl)cc12)c1cnn(Cc2cn3cccc(C4(CO)CC4)c3n2)c1` [Example I-117, N-((7-chloroimidazo[1,5-a]pyridin-1-yl)methyl)-1-((8-(1-(hydroxymethyl)cyclopropyl)imidazo[1,2-a]pyridin-2-yl)methyl)-1H-pyrazole-4-carboxamide], with less than 1 nM; and `C=Cc1ccn2cnc(CNC(=O)c3cnn(Cc4cn5cc(C6CC6)ccc5n4)c3)c2c1` [Example I-118, 1-((6-cyclopropylimidazo[1,2-a]pyridin-2-yl)methyl)-N-((7-vinylimidazo[1,5-a]pyridin-1-yl)methyl)-1H-pyrazole-4-carboxamide], with 1 to 10 nM; and `CC(C)(O)CCc1cc(C2CC2)cn2cc(Cn3cc(C(=O)NCc4ncn5ccc(Cl)cc45)cn3)nc12` [Example I-119, N-((7-chloroimidazo[1,5-a]pyridin-1-yl)methyl)-1-((6-cyclopropyl-8-(3-hydroxy-3-methylbutyl)imidazo[1,2-a]pyridin-2-yl)methyl)-1H-pyrazole-4-carboxamide], with less than 1 nM. The same measure for `O=C(NCc1ncn2ccc(Cl)cc12)c1cn(Cc2cn3cc(C4CC4)ccc3n2)nc1C1CC1C(=O)O` (centres unmarked) [Example I-120, 2-(4-(((7-chloroimidazo[1,5-a]pyridin-1-yl)methyl)carbamoyl)-1-((6-cyclopropylimidazo[1,2-a]pyridin-2-yl)methyl)-1H-pyrazol-3-yl)cyclopropane-1-carboxylic acid]: less than 1 nM. The same measure for `O=C(NCc1ncn2ccc(Cl)cc12)c1cnn(Cc2cn3cc(C4CC4)ccc3n2)n1` [Example I-121, N-((7-chloroimidazo[1,5-a]pyridin-1-yl)methyl)-2-((6-cyclopropylimidazo[1,2-a]pyridin-2-yl)methyl)-2H-1,2,3-triazole-4-carboxamide]: less than 1 nM. `O=C(NCc1ncn2ccc(Cl)cc12)c1cnn(Cc2cn3cc(C4CC4)cc(C4(O)COC4)c3n2)c1` [Example I-122, N-((7-chloroimidazo[1,5-a]pyridin-1-yl)methyl)-1-((6-cyclopropyl-8-(3-hydroxyoxetan-3-yl)imidazo[1,2-a]pyridin-2-yl)methyl)-1H-pyrazole-4-carboxamide]: the concentration giving a half-maximal response (EC50) is less than 1 nM. The same measure for `N#CNC(=NCc1ncn2ccc(Cl)cc12)c1cnn(Cc2cn3cc(C4CC4)ccc3n2)c1` [Example I-123, N′-((7-chloroimidazo[1,5-a]pyridin-1-yl)methyl)-N-cyano-1-((6-cyclopropylimidazo[1,2-a]pyridin-2-yl)methyl)-1H-pyrazole-4-carboximidamide]: 1 to 10 nM.

On to `CC(c1cn2cc(C3CC3)ccc2n1)n1cc(C(=O)NCc2ncn3ccc(Cl)cc23)nn1` (centres unmarked) [Example I-124, N-((7-chloroimidazo[1,5-a]pyridin-1-yl)methyl)-1-(1-(6-cyclopropylimidazo[1,2-a]pyridin-2-yl)ethyl)-1H-1,2,3-triazole-4-carboxamide], for which the EC50 was in the range of 1 to 10 nM. Then `COCCc1cc(C2CC2)cn2cc(Cn3cc(C(=O)NCc4ncn5ccc(Cl)cc45)cn3)nc12` [Example I-125, N-((7-chloroimidazo[1,5-a]pyridin-1-yl)methyl)-1-((6-cyclopropyl-8-(2-methoxyethyl)imidazo[1,2-a]pyridin-2-yl)methyl)-1H-pyrazole-4-carboxamide], with less than 1 nM.
